# Values quoted from earlier work in patent US20060172993A1 (priority 2002, published 2006).
# System: humans
# Details: cited from earlier work
compound,measurement,setting,value
"COc1ccc2c3c1O[C@H]1C[C@@H](O)C=C[C@@]31CCN(C)C2 [GAL, galantamine]",Passing the blood-brain barrier,humans,capable of passing the blood-brain barrier in humans
same,Side effects,therapeutically effective dosages,no severe side effects
